Data from US12240862B2, “Inhibitors of peptidylarginine deiminases” (Gilead Sciences, Inc., priority 2020, dated 2025).

Target: T1, human PAD4 (Homo sapiens, UniProt Q9UM07)
T1 construct: human PAD4 (NM_012387), A2P663, was PCR amplified; His-SUMO (N, cleaved yes); made in house; host or cells: E. coli BL21(DE3)
Assay: In vitro PAD4 BAEE biochemical assay
Conditions: human PAD4, BAEE substrate; 5 nM PAD4, 2 mM calcium chloride, 3 mM BAEE; geometric mean of multiple experiments
How it was run: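 Ammonia generated from BAEE serves as the readout, measured by o-phthalaldehyde after EDTA termination. Final conditions: 5 nM human PAD4 (SUMO tag cleaved), 2 mM CaCl2, 3 mM BAEE, pH 7.6 MOPS buffer, 25 °C for 2 h following a 30-min compound preincubation.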

T1 sequence (Q9UM07 2-663): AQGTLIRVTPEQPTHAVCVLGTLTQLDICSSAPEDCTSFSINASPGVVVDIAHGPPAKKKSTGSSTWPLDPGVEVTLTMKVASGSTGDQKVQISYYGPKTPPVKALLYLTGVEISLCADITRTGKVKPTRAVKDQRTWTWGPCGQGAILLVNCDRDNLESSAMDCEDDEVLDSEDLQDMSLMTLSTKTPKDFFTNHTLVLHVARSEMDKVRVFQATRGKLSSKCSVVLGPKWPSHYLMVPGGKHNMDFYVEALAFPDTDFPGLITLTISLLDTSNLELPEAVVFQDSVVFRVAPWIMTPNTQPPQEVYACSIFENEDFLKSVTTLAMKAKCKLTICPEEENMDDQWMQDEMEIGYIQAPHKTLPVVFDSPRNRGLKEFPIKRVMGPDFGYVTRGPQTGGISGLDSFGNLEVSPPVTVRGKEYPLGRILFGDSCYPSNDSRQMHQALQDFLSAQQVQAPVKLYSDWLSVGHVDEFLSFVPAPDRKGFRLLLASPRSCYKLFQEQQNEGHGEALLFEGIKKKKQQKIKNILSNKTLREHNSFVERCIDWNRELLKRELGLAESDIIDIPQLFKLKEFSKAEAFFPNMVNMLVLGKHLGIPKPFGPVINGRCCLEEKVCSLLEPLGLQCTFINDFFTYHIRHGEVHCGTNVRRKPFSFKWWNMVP

| SMILES | IC50 |
| --- | --- |
| COc1cc(C(=O)N2[C@H]3CC[C@@H]2[C@H](N)C3)cc2nc(-c3cc4ccc([C@@H](C)NC(=O)C(C)(C)CO)nc4n3CC3CC3)c(C)n12 [Example 134] | 0.0665 µM |
| COc1cc(C(=O)N(C)C2CCCNC2)cc2nc(-c3cc4ccc(N(C(F)F)S(C)(=O)=O)nc4n3CC3CC3)c(C)n12 (stereo not drawn) [Example 328, 2-[1-(cyclopropylmethyl)-6-[difluoromethyl (methylsulfonyl)amino]pyrrolo[2,3-b]pyridin-2-yl]-5-methoxy-~{N}, 3-dimethyl-~{N}-piperidin-3-ylimidazo [1,2-a]pyridine-7-carboxamide] | 4.88 µM |
| COc1cc(C(=O)N2[C@H]3CC[C@@H]2[C@H](N)C3)cc2nc(-c3cc4ccc([C@@H](C)NC(=O)C5(C#N)CC5)nc4n3CC3CC3)c(C)n12 [Example 165, ~{N}-[(1~{R})-1-[2-[7-[(1~{R},2~{R},4~{S})-2-amino-7-azabicyclo[2.2.1]heptane-7-carbonyl]-5-methoxy-3-methylimidazo [1,2-a]pyridin-2-yl]-1-(cyclopropylmethyl)pyrrolo [2,3-b]pyridin-6-yl]ethyl]-1-cyanocyclopropane-1-carboxamide] | 0.0605 µM |
| COc1cc(C(=O)N2CC[C@H]3CCN[C@H]3C2)cc2nc(-c3cc4ccc(N(C(F)F)S(C)(=O)=O)nc4n3CC3CC3)c(C)n12 [Example 325] | 0.154 µM |
| CS(=O)(=O)N(c1ccc2cc(-c3nc4cc(C(=O)N5CCC[C@@H](N)C5)ccn4c3C3CC3)n(CC3CC3)c2n1)C(F)F [Example 398, ~{N}-[2-[7-[(3~{R})-3-aminopiperidine-1-carbonyl]-3-cyclopropylimidazo[1,2-a]pyridin-2-yl]-1-(cyclopropylmethyl)pyrrolo [2,3-b]pyridin-6-yl]-~{N}-(difluoromethyl) methanesulfonamide] | 0.0607 µM |
| CCc1ccc2cc(-c3nc4cc(C(=O)N5[C@H]6CC[C@@H]5[C@H](N)C6)cc(OC)n4c3C)n(CCO)c2n1 [Example 497, [(1~{R},2~{R},4~{S})-2-amino-7-azabicyclo [2.2.1]heptan-7-yl]-[2-[6-ethyl-1-(2-hydroxyethyl)pyrrolo[2,3-b]pyridin-2-yl]-5-methoxy-3-methylimidazo [1,2-a]pyridin-7-yl]methanone] | 1.23 µM |
| COc1cc(C(=O)N2[C@H]3CC[C@@H]2[C@H](N)C3)cc2nc(-c3cc4ccc(C(O)C(F)(F)F)nc4n3CC3CC3)c(C)n12 (stereo partly drawn) [Example 569, [(1~{R},2~{R},4~{S})-2-amino-7-azabicyclo [2.2.1]heptan-7-yl]-[2-[1-(cyclopropylmethyl)-6-(2,2,2-trifluoro-1-hydroxyethyl)pyrrolo [2,3-b]pyridin-2-yl]-5-methoxy-3-methylimidazo[1,2-a]pyridin-7-yl]methanone] | 0.145 µM |
| COc1cc(C(=O)N2[C@H]3CC[C@@H]2[C@H](N)C3)cc2nc(-c3cc4ccc([C@@H](C)NC(=O)c5ccc(Cl)nc5)nc4n3CC3CC3)c(C)n12 [Example 48, ~{N}-[(1~{R})-1-[2-[7-[(1~{R},2~{R},4~{S})-2-amino-7-azabicyclo[2.2.1]heptane-7-carbonyl]-5-methoxy-3-methylimidazo [1,2-a]pyridin-2-yl]-1-(cyclopropylmethyl)pyrrolo[2,3-b]pyridin-6-yl]ethyl]-6-chloropyridine-3-carboxamide] | 0.0344 µM |
| COCC1(C(=O)N[C@H](C)c2ccc3cc(-c4nc5cc(C(=O)N6[C@H]7CC[C@@H]6[C@H](N)C7)cc(OC)n5c4C)n(CC4CC4)c3n2)CCC1 [Example 29, ~{N}-[(1~{R})-1-[2-[7-[(1~{R},2~{R},4~{S})-2-amino-7-azabicyclo [2.2.1]heptane-7-carbonyl]-5-methoxy-3-methylimidazo[1,2-a]pyridin-2-yl]-1-(cyclopropylmethyl)pyrrolo[2,3-b]pyridin-6-yl]ethyl]-1-(methoxymethyl) cyclobutane-1-carboxamide] | 0.108 µM |

The remaining molecules from weak to strong by IC50, led by results:

| IC50 | SMILES |
| --- | --- |
| 13 µM | COc1cc(C(=O)N2CCCC(C)(N)C2)cc2nc(-c3cc4ccc([C@@H](C)NC(=O)C56CC(F)(C5)C6)nc4n3CC3CC3)c(C3CC3)n12 (stereo partly drawn) [Example 124, ~{N}-[(1~{R})-1-[2-[7-(3-amino-3-methylpiperidine-1-carbonyl)-3-cyclopropyl-5-methoxyimidazo [1,2-a]pyridin-2-yl]-1-(cyclopropylmethyl)pyrrolo [2,3-b]pyridin-6-yl]ethyl]-3-fluorobicyclo[1.1.1]pentane-1-carboxamide] |
| 6.88 µM | COc1cc(C(=O)N2CCC[C@@H](N)C2)cc2nc(-c3cc4ccc(-c5cccc6c5CN(C)C6=O)nc4n3CC3CC3)c(C)n12 [Example 601, 4-[2-[7-[(3~{R})-3-aminopiperidine-1-carbonyl]-5-methoxy-3-methylimidazo[1,2-a]pyridin-2-yl]-1-(cyclopropylmethyl)pyrrolo[2,3-b]pyridin-6-yl]-2-methyl-3~{H}-isoindol-1-one] |
| 1.91 µM | COc1cc(C(=O)N2CCC[C@@H](N)C2)cc2nc(-c3cc4ccc(Cl)nc4n3CC3CC3)c(C)n12 [Example 599, [(3~{R})-3-aminopiperidin-1-yl]-[2-[6-chloro-1-(cyclopropylmethyl)pyrrolo [2,3-b]pyridin-2-yl]-5-methoxy-3-methylimidazo[1,2-a]pyridin-7-yl]methanone] |
| 1.36 µM | [2H]C([2H])([2H])N(c1ccc2cc(-c3nc4cc(C(=O)N5C[C@H]6CC[C@@H]5[C@@H]6N)cc(OC)n4c3C)n(CC3CC3)c2n1)S(=O)(=O)Cc1ccccc1 [Example 471, N-[2-[7-[(1R,4R,7R)-7-amino-2-azabicyclo[2.2.1]heptane-2-carbonyl]-5-methoxy-3-methyl-imidazo [1,2-a]pyridin-2-yl]-1-(cyclopropylmethyl)pyrrolo[2,3-b]pyridin-6-yl]-1-phenyl-N-(trideuteriomethyl) methanesulfonamide] |
| 1.07 µM | CS(=O)(=O)N(c1ccc2cc(-c3nc4cc(C(=O)N5CC[C@@H](F)[C@@H](N)C5)ccn4c3C3CC3)n(CC3CC3)c2n1)C(F)F [Example 394, ~{N}-[2-[7-[(3~{S},4~{R})-3-amino-4-fluoropiperidine-1-carbonyl]-3-cyclopropylimidazo[1,2-a]pyridin-2-yl]-1-(cyclopropylmethyl)pyrrolo [2,3-b]pyridin-6-yl]-~{N}-(difluoromethyl) methanesulfonamide] |
| 0.521 µM | COc1cc(C(=O)N2CCC[C@@H](N)C2)cc2nc(-c3cc4ccc([C@@H](C)NCC(F)(F)F)nc4n3CC3CC3)c(C)n12 [Example 267, [(3~{R})-3-aminopiperidin-1-yl]-[2-[1-(cyclopropylmethyl)-6-[(1~{R})-1-(2,2,2-trifluoroethylamino)ethyl]pyrrolo[2,3-b]pyridin-2-yl]-5-methoxy-3-methylimidazo[1,2-a]pyridin-7-yl]methanone] |
| 0.486 µM | COc1cc(C(=O)N2CCC[C@@H](N)C2)cc2nc(-c3cc4ccc([C@@H](C)NC(=O)OCC(C)(C)C)nc4n3CC3CC3)c(C)n12 [Example 256, 2,2-dimethylpropyl~{N}-[(1~{R})-1-[2-[7-[(3~ {R})-3-aminopiperidine-1-carbonyl]-5-methoxy-3-methylimidazo[1,2-a]pyridin-2-yl]-1-(cyclopropylmethyl)pyrrolo [2,3-b]pyridin-6-yl]ethyl] carbamate] |
| 0.208 µM | COc1cc(C(=O)N2CCC[C@@H](N)C2)cc2nc(-c3cc4ccc([C@@H](C)NC(=O)C56CC(C#N)(C5)C6)nc4n3CC3CC3)c(C3CC3)n12 [Example 139, ~{N}-[(1~{R})-1-[2-[7-[(3~{R})-3-aminopiperidine-1-carbonyl]-3-cyclopropyl-5-methoxyimidazo [1,2-a]pyridin-2-yl]-1-(cyclopropylmethyl)pyrrolo [2,3-b]pyridin-6-yl]ethyl]-3-cyanobicyclo[1.1.1]pentane-1-carboxamide] |
| 0.165 µM | CCN(C(=O)OC)c1ccc2cc(-c3nc4cc(C(=O)N5[C@H]6CC[C@@H]5[C@H](N)C6)cc(OC)n4c3C)n(CC3CC3)c2n1 [Example 470, methyl~{N}-[2-[7-[(1~{R},2~{R},4~{S})-2-amino-7-azabicyclo[2.2.1]heptane-7-carbonyl]-5-methoxy-3-methylimidazo [1,2-a]pyridin-2-yl]-1-(cyclopropylmethyl)pyrrolo [2,3-b]pyridin-6-yl]-~{N}-ethylcarbamate] |
| 0.16 µM | CCc1ccc2cc(-c3nc4cc(C(=O)N5[C@H]6CC[C@@H]5[C@H](N)C6)cc(OC)n4c3C)n(CC(C)(F)F)c2n1 [Example 500, [(1~{R},2~{R},4~{S})-2-amino-7-azabicyclo [2.2.1]heptan-7-yl]-[2-[1-(2,2-difluoropropyl)-6-ethylpyrrolo[2,3-b]pyridin-2-yl]-5-methoxy-3-methylimidazo [1,2-a]pyridin-7-yl] methanone] |
| 0.152 µM | CCc1ccc2cc(-c3nc4cc(C(=O)N5[C@H]6CC[C@@H]5[C@H](N)C6)cc(OC)n4c3C)n(Cc3ccncc3)c2n1 [Example 507, [(1~{R},2~{R},4~{S})-2-amino-7-azabicyclo [2.2.1]heptan-7-yl]-[2-[6-ethyl-1-(pyridin-4-ylmethyl)pyrrolo[2,3-b]pyridin-2-yl]-5-methoxy-3-methylimidazo[1,2-a]pyridin-7-yl]methanone] |
| 0.129 µM | COc1cc(C(=O)N2[C@@H]3CC[C@@H](N)[C@H]2CC3)cc2nc(-c3cc4ccc(N(C(F)F)S(C)(=O)=O)nc4n3CC3CC3)c(C)n12 [Example 407, ~{N}-[2-[7-[(1~{R},2~{R}, 5~{R})-2-amino-8-azabicyclo[3.2.1]octane-8-carbonyl]-5-methoxy-3-methylimidazo[1,2-a]pyridin-2-yl]-1-(cyclopropylmethyl)pyrrolo [2,3-b]pyridin-6-yl]-~{N}-(difluoromethyl) methanesulfonamide] |
